Holding throughout (type): cell-based
One experiment deals with Helicobacter pylori. Briefly: Chessboard method, synergistic inhibitory effect of two monomers (FIC). The following applies: monomer used alone, 72 hours. How it is done:
The compositions 1, 2, 3, 4 and 5 are prepared according to Examples 1, 2, 3, 4 and 5, respectively. • 1.2. Strain • (1) Helicobacter pylori strains: standard strains 26695, NSH57, MSD132 and G27 are presented by Dr. Hongkai Bi of Nanjing Medical University; clinical metronidazole drug-resistant strains, clarithromycin drug-resistant strains, levofloxacin drug-resistant strains, levofloxacin and metronidazole drug-resistant strains, clarithromycin and metronidazole drug-resistant strains, levofloxacin and clarithromycin and metronidazole multi drug-resistant strains (HPBS001, HPBS002, HPBS003, and the like) are provided by the Research Center for the Prevention and Treatment of Drug Resistant Microbial Infections of Youjiang Medical University for Nationalities. • (2) Non Helicobacter pylori strains: Staphylococcus aureus, Escherichia coli, Pseudomonas aeruginosa, Acinetobacter baumannii, Klebsiella pneumoniae, Candida albicans, Enterobacter cloacae, Campylobacter jejuni, Bacillus subtilis, Proteus mirabilis, Lactobacillus campylobacter, Stenotrophomonas maltophilia, Morganella morganii, Candida tropicalis, Staphylococcus haemolyticus, Acetobacter, Saccharomyces cerevisiae, Enterobacter hormaechei well is provided by the Research Center for the Prevention and Treatment of Drug Resistant Microbial Infections of Youjiang Medical University for Nationalities. • 1.3 Main culture media and reagents: Columbia culture medium, Brain Heart Infusion Broth, nutrient agar culture medium, nutrient broth culture medium, MH culture medium, Sabouraud culture medium, standard calf serum. • 1.4 Main instruments: three gas incubator, centrifuge, microplate reader, electronic balance, and the like. • 1.5 Consumable materials: EP tube, tip, centrifuge tube, and the like. • 2. […]

A further experiment concerns Helicobacter pylori (Hp). As to the kind of experiment: screening of antibacterial components of traditional Chinese drug, MIC against Hp. The following applies: monomer alone. From the text:
The combination of different monomer compositions can resist bacteria, increase the action target of the composition, be conducive to improve the antibacterial effect and reduce the drug resistance of the composition. Therefore, in the present disclosure, according to the quality ratio of Zuojin pills, berberine, evolitrine, and tanshinone I are combined according to a certain quality ratio to inhibit Hp. This combination can synergistically enhance the inhibition of Hp, and is not easy to produce drug resistance, which has an extremely excellent effect on the treatment of Hp infection related diseases.

Experiment [1] has as its system Helicobacter pylori G27 strain. Briefly: Drug resistance test, induction with 1/4 MIC for 24 days. From the text: Note: In 6:1:3 group, “>” refers to greater than 46.1+7. 7+23.1. • 2.4 Drug Resistance Test of Prepared 6:1:3 Composition • (1) The drug resistance of […] is detected with Helicobacter pylori G27 strain.
Where [2] appears, read: Helicobacter pylori, read-out: MIC.

Converted amounts (≈) assume the structure as drawn. Read-outs that look alike come from different tables or passages of the source.

Regarding `COc1ccc2cc3[n+](cc2c1OC)CCc1cc2c(cc1-3)OCO2` [Berberine, berberine], the MIC (as a rule, the least concentration at which growth counts as inhibited) in the experiment on Helicobacter pylori (setting [2]) is 16 µg/mL; in the experiment with Helicobacter pylori (Hp) (setting [2]), 16 to 32 µg/mL.

As for `COc1ccc2c(OC)c3ccoc3nc2c1` [Evolitrine, evolitrine], the results for the minimal inhibitory concentration (MIC) in the experiment with Helicobacter pylori (setting [2]) and in the experiment with Helicobacter pylori (Hp) (setting [2]) were 32 µg/mL and 16 to 32 µg/mL, respectively.

Consider `Cc1coc2c1C(=O)C(=O)c1c-2ccc2c(C)cccc12` [Tanshinone I, tanshinone I], for which the results for the minimal inhibitory concentration (MIC) result in the experiment with Helicobacter pylori and with Helicobacter pylori (Hp) were “Tanshinone I (1 μg/mL)” and 0.5 to 1 µg/mL, respectively.

Consider `Cc1ncc([N+](=O)[O-])n1CCO` [metronidazole], for which the MIC in experiment [1] (Helicobacter pylori, G27STRAIN, before induction) worked out at 2 µg/mL (≈ 11.7 µM). The “MIC increase after induction” value in experiment [1] (after 24 days of induction with 1/4 MIC, FIG. 3) was 64 times.

For the origin of these results see patent publication US12310952B2, “Traditional Chinese drug monomer composition for treating Helicobacter pylori, preparation method and use thereof” (YOUJIANG MEDICAL UNIVERSITY FOR NATIONALITIES, priority 2023, dated 2025).
